Test results: BindingDB's records for doi:10.1021/jm9707232 (Sapienza University of Rome, 1998)

Target: Integrase (Human immunodeficiency virus 1, UniProt Q7ZJM1)
Experiment: Compound concentration required to reduce HIV-1 Integrase 3'-processing activity by 50%

Integrase, sequence (Q7ZJM1 whole entry): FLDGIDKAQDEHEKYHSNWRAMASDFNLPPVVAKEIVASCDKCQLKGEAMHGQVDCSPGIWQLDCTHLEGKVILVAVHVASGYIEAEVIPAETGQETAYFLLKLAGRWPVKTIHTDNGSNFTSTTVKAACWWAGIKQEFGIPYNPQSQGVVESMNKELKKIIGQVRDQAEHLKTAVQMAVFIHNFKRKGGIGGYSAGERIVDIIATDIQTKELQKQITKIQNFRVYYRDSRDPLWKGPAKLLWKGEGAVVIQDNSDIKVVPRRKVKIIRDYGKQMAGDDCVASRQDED

SMILES	IC50 [µM]
COc1ccc(C=CC(=O)CC(=O)C=Cc2ccc(OC)c(OC)c2)cc1OC [(1E,4Z,6E)-1,7-bis(3,4-dimethoxyphenyl)-5-hydroxyhepta-1,4,6-trien-3-one]	> 100
O=C(C=Cc1ccccc1)CC(=O)C=Cc1ccccc1 [5-Hydroxy-1,7-diphenylhepta-1,4,6-trien-3-one]	> 100
